{
  "source": "patent US11401277B2",
  "about": "“Anti-bacterial heterocyclic compounds and their synthesis” (Bugworks Research, Inc., priority 2017, dated 2022)",
  "key": {"hERG potassium channel": {"molecular_target": "T1, hERG potassium channel (Homo sapiens, UniProt Q12809)", "T1 construct": "Chinese Hamster Ovary cell line stably expressing the full-length hERG potassium channel; expressed in transfected cells", "T1 sequence (Q12809 whole entry)": "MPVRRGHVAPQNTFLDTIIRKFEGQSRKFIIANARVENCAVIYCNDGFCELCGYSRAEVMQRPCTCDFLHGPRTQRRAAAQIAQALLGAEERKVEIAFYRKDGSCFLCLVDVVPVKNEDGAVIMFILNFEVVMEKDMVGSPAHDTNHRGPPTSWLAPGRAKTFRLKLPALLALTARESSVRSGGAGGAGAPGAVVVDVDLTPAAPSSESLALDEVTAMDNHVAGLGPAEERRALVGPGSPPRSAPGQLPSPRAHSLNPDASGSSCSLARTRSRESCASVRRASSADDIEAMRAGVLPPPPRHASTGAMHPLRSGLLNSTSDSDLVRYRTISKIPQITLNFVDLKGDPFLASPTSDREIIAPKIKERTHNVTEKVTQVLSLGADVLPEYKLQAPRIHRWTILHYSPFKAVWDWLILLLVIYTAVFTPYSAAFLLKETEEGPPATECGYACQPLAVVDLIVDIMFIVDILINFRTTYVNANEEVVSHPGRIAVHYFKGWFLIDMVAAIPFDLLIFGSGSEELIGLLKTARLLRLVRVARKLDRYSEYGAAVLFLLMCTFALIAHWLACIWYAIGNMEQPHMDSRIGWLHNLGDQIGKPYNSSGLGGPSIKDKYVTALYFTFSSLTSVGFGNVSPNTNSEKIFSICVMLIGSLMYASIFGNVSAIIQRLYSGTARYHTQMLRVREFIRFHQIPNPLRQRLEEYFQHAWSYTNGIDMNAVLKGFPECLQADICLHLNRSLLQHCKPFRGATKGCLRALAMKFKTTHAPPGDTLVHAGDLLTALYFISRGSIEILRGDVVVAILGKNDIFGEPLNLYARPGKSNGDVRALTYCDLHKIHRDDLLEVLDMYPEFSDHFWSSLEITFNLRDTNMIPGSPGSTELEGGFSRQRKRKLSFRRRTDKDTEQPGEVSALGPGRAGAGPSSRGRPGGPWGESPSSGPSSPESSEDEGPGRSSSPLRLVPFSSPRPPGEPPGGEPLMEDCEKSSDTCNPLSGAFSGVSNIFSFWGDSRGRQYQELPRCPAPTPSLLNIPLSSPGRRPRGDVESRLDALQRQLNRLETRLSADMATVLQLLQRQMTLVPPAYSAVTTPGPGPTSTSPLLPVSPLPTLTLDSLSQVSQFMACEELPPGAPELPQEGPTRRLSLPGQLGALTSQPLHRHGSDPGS", "experiment": "hERG inhibition assay, QPatch HTX automated electrophysiology", "format": "cell-based", "details": "CHO cell line expressing hERG; whole-cell patch clamp, room temperature", "method": "The compounds were tested for inhibition of the human ether a go-go related gene (hERG) K+ channel using QPatch HTX automated electrophysiology.\nCompounds of Formula I were solubilised to 100 mM in DMSO before dilution in HBPS to 300 μM.\nElectrophysiological recordings were made from a Chinese Hamster Ovary cell line stably expressing the full-length hERG potassium channel. Single cell ionic currents were measured in whole-cell patch clamp configuration at room temperature (21-23° C.) using the QPatch HTX platform (Sophion). Intracellular solution contained (mM): 120 KF, 20 KCl, 10 EGTA, 10 HEPES and was buffered to pH 7.3. […] Cells were clamped at a holding potential of −80 mV. Cells were stepped to +20 mV for 2 s then −40 mV for 3 s before returning to the holding potential. This sweep was repeated 10 times at 10 s intervals. hERG currents were measured from the tail step and referenced to the holding current. Compounds were then incubated for 2 minutes prior to a second measurement of ion channel current using an identical pulse train."}, "[1]": {"experiment": "IV Formulation solubility", "format": "physicochemical", "details": "10% L-ascorbic acid in MilliQ water, 37 °C, pH 2.8, aqueous with cosolvent or surfactant or cyclodextrin, thermodynamic from solid, 1N NaOH for pH adjustment, read-out: Solubility in 10% L-ascorbic acid in fresh MilliQ water(v/v), Final pH~2.8", "method": "Procedure: Weighed appropriate amount of the Compound 2 to be tested and dissolved in 1 ml of the 10% ascorbic acid solution. (Vortex for a few seconds if the compound doesn't dissolve instantly). Sonicated the compound solution at 37° C. for 5 minutes using a bath sonicator to obtain a visually clear solution. […]"}, "[2]": {"test_system": "P. aeruginosa [ATCC27853]", "experiment": "Neutropenic Lung Infection Model in Rat", "format": "in vivo", "details": "for MEAN ± SD (Log10 CFU/g Lung) / Mean Log 10 CFU/g lung reduction (wrt 4 h PI control: 6.52 Log10CFU/g lung) / Log10 CFU/g Lung: i.v., 1 h infusion; for Log10 CFU/g Lung: individual animals, 24 h post infection", "method": "Animals were placed into an induction chamber and anaesthesia was induced by exposing the animals to 3-5% Isoflurane in an oxygen flow set at approximately (˜) 1 liter per minute (LPM). […] A gentle mixing of inoculum between two animals was followed for uniform distribution.\nMeropenem was formulated in saline.\nEntire Lung was aseptically isolated, weighed and placed into 1 mL of sterile CSDB broth, and homogenized (Omni Tip (220 V hand held)). Serial ten-fold dilutions of the lungs homogenates were prepared in sterile CSD broth and 0.05 mL of four dilutions for each tissue was plated onto CSDA agar plates. Bacterial colonies were enumerated following overnight incubation at 37° C. Bacterial densities were estimated as Log10 CFU/g lung. The Mean±SD Log10 CFU/g lung was estimated in each group."}, "[3]": {"test_system": "Citrobacter freundii ATCC 43864", "experiment": "MIC studies in LB Media", "format": "cell-based", "details": "ATCC43864, read-out: Minimum Inhibitory Concentration in LB Media, C. fr", "method": "(§1) Bacterial cultures that were stored as glycerol stocks at −80° C. were sub cultured on LB agar plates to obtain isolated colonies. A single colony of each strain was cultured in LB broth. The cultures were incubated at 37° C., 200 rpm till they reach an optical density (OD at 600 nm) of 0.8 to 1. […] Test compounds were dissolved in dimethyl sulfoxide (DMSO) to a stock concentration of 4 mg/ml. A two-fold dilution series of this DMSO stock was prepared in a 96 well V bottom microtitre plate from rows A to H. A 3 μL volume of these dilutions were transferred to a 96-well flat bottom microtitre assay plate. Controls to monitor the effects of DMSO and media sterility were included. Each well was inoculated with 150 μL of the above diluted culture. The plates were incubated at 37° C. overnight in a humidified incubator. The following morning, the plates were read using a Spectrophotometer at 600 nm wavelength."}, "[4]": {"test_system": "Morganella morganii ATCC 25830", "experiment": "MIC studies in LB Media", "format": "cell-based", "details": "ATCC25830, read-out: Minimum Inhibitory Concentration in LB Media, M. mo", "method": "as §1"}, "[5]": {"test_system": "Proteus mirabilis ATCC 43071", "experiment": "MIC studies in LB Media", "format": "cell-based", "details": "ATCC43071, read-out: Minimum Inhibitory Concentration in LB Media, P. mi", "method": "as §1"}, "A. baumannii ATCC 19606": {"test_system": "A. baumannii ATCC 19606", "experiment": "MIC studies in LB Media", "format": "cell-based", "details": "Acinetobacter baumannii, ATCC19606, read-out: Minimum Inhibitory Concentration in LB Media, A. ba", "method": "as §1"}, "K. pneumoniae ATCC 13883": {"test_system": "K. pneumoniae ATCC 13883", "experiment": "MIC studies in LB Media", "format": "cell-based", "details": "Klebsiella pneumoniae, ATCC13883, read-out: Minimum Inhibitory Concentration in LB Media, K. pn", "method": "as §1"}, "P. aurigenosa ATCC 27853": {"test_system": "P. aurigenosa ATCC 27853", "experiment": "MIC studies in LB Media", "format": "cell-based", "details": "Pseudomonas aeruginosa, ATCC27853, read-out: Minimum Inhibitory Concentration in LB Media, P. ae", "method": "as §1"}, "E. coli ATCC 25922": {"test_system": "E. coli ATCC 25922", "experiment": "MIC studies in LB Media", "format": "cell-based", "details": "Escherichia coli, ATCC25922, read-out: Minimum Inhibitory Concentration in LB Media, E. co", "method": "as §1"}, "[6]": {"test_system": "Enterobacter cloacae ATCC 13047", "experiment": "MIC studies in LB Media", "format": "cell-based", "details": "ATCC13047, read-out: Minimum Inhibitory Concentration in LB Media, E. cl", "method": "as §1"}, "S. aureus ATCC 29213": {"test_system": "S. aureus ATCC 29213", "experiment": "MIC studies in LB Media", "format": "cell-based", "details": "Staphylococcus aureus, ATCC29213, MIC = 90% inhibition of growth, read-out: Minimum Inhibitory Concentration in LB Media, S. au", "method": "as §1"}, "E. faecalis ATCC 29212": {"test_system": "E. faecalis ATCC 29212", "experiment": "MIC studies in LB Media", "format": "cell-based", "details": "Enterococcus faecalis, ATCC29212, read-out: Minimum Inhibitory Concentration in LB Media, E. fa", "method": "as §1"}},
  "note": "Where “and” joins values, the source holds several entries; their conditions need not be identical. Identical values can stand only once.",
  "data": [
    {"smiles": "Cn1c(=O)ccc2ccc(F)c(OCCNC[C@H]3CN(c4cnc5c(n4)NC(=O)CO5)C(=O)O3)c21", "note": "[Compound 2, (S)-6-(5-(((2-((7-fluoro-1-methyl-2-oxo-1,2-dihydroquinolin-8-yl)oxy)ethyl)amino)methyl)-2-oxooxazolidin-3-yl)-2H-pyrazino[2,3-b][1,4]oxazin-3(4H)-one]", "values": [
      {"measurement": "IC50", "setting": "hERG potassium channel", "result": 124, "unit": "µM"},
      {"measurement": "solubility at 5 min", "setting": "[1]", "result": 15, "unit": "mg/mL"},
      {"measurement": "MEAN ± SD (Log10 CFU/g Lung)", "setting": "[2]; 3 mg/kg", "result": "8.09 ± 0.14", "unit": "Log10 CFU/g Lung"},
      {"measurement": "Mean Log 10 CFU/g lung reduction (wrt 4 h PI control: 6.52 Log10CFU/g lung)", "setting": "[2]; 3 mg/kg", "result": "−1.57", "unit": "Log 10 CFU/g lung"},
      {"measurement": "Log10 CFU/g Lung", "setting": "[2]; 3 mg/kg", "result": "7.99 Log10 CFU/g Lung and 8.02 Log10 CFU/g Lung and 8.26 Log10 CFU/g Lung"},
      {"measurement": "MEAN ± SD (Log10 CFU/g Lung)", "setting": "[2]; 10 mg/kg", "result": "6.93 ± 0.44", "unit": "Log10 CFU/g Lung"},
      {"measurement": "Mean Log 10 CFU/g lung reduction (wrt 4 h PI control: 6.52 Log10CFU/g lung)", "setting": "[2]; 10 mg/kg", "result": "−0.41", "unit": "Log 10 CFU/g lung"},
      {"measurement": "Log10 CFU/g Lung", "setting": "[2]; 10 mg/kg", "result": "7.34 Log10 CFU/g Lung and 6.98 Log10 CFU/g Lung and 6.46 Log10 CFU/g Lung"},
      {"measurement": "efficacy with respect to early infection control (in words)", "setting": "[2]; 30 mg/kg and 100 mg/kg doses", "result": "significant efficacy"},
      {"measurement": "MEAN ± SD (Log10 CFU/g Lung)", "setting": "[2]; 30 mg/kg", "result": "5.35 ± 0.25", "unit": "Log10 CFU/g Lung"},
      {"measurement": "Mean Log 10 CFU/g lung reduction (wrt 4 h PI control: 6.52 Log10CFU/g lung)", "setting": "[2]; 30 mg/kg", "result": 1.17, "unit": "Log 10 CFU/g lung"},
      {"measurement": "Log10 CFU/g Lung", "setting": "[2]; 30 mg/kg", "result": "5.30 Log10 CFU/g Lung and 5.63 Log10 CFU/g Lung and 5.14 Log10 CFU/g Lung"},
      {"measurement": "MEAN ± SD (Log10 CFU/g Lung)", "setting": "[2]; 100 mg/kg", "result": "3.1 ± 0.12", "unit": "Log10 CFU/g Lung"},
      {"measurement": "Mean Log 10 CFU/g lung reduction (wrt 4 h PI control: 6.52 Log10CFU/g lung)", "setting": "[2]; 100 mg/kg", "result": 3.42, "unit": "Log 10 CFU/g lung"},
      {"measurement": "Log10 CFU/g Lung", "setting": "[2]; 100 mg/kg", "result": "3.12 Log10 CFU/g Lung and 3.20 Log10 CFU/g Lung and 2.98 Log10 CFU/g Lung"},
      {"measurement": "MIC", "setting": "[3]", "result": "≤ 0.03", "unit": "µg/mL"},
      {"measurement": "MIC", "setting": "[4]", "result": 0.125, "unit": "µg/mL"},
      {"measurement": "MIC", "setting": "[5]", "result": 0.125, "unit": "µg/mL"},
      {"measurement": "MIC", "setting": "A. baumannii ATCC 19606", "result": 0.06, "unit": "µg/mL"},
      {"measurement": "MIC", "setting": "K. pneumoniae ATCC 13883", "result": 0.06, "unit": "µg/mL"},
      {"measurement": "MIC", "setting": "P. aurigenosa ATCC 27853", "result": 0.5, "unit": "µg/mL"},
      {"measurement": "MIC", "setting": "E. coli ATCC 25922", "result": 0.03, "unit": "µg/mL"},
      {"measurement": "MIC", "setting": "[6]", "result": 0.125, "unit": "µg/mL"},
      {"measurement": "MIC", "setting": "S. aureus ATCC 29213", "result": "≤ 0.015", "unit": "µg/mL"},
      {"measurement": "MIC", "setting": "E. faecalis ATCC 29212", "result": 0.06, "unit": "µg/mL"}
    ]}
  ]
}
